# Test system: not listed separately
# Assay: Cytotoxicity against human HepG2(2.2.15) cells after 8 days by MTT assay
# Format: cell-based
row,Structure (SMILES),CC50 at 192 h [µM]
1,O=c1c(CO)c(-c2ccc(O[C@@H]3O[C@H](CO)[C@@H](O)[C@H](O)[C@H]3O)c(O)c2)oc2cc(O)cc(O)c12,19.7
2,O=c1c(O)c(-c2ccc(O)c(O)c2)oc2cc(O)cc(O)c12 [QUERCETIN],38.1
3,O=c1c(CO)c(-c2ccc(O[C@@H]3O[C@H](CO)[C@@H](O)[C@H](O)[C@H]3O)c(O)c2)oc2cc(O[C@@H]3O[C@H](CO)[C@@H](O)[C@H](O)[C@H]3O)cc(O)c12 [PEDUNCULOSUMOSIDE F],56.7
4,O=c1c2c(oc3cc(O)cc(O)c13)-c1ccc(O)c(O)c1CO2 [OPHIOGLONIN],20.4
5,COc1c(-c2ccc(O)c(O)c2)oc2cc(O)cc(O)c2c1=O [3-O-METHYLQUERCETIN],2.1
6,O=c1c(CO)c(-c2ccc(O[C@@H]3O[C@H](CO)[C@@H](O)[C@H](O)[C@H]3O)c(O)c2)oc2cc(O[C@@H]3O[C@H](CO)[C@@H](O)[C@H](O)[C@H]3O[C@@H]3O[C@H](CO)[C@@H](O)[C@H](O)[C@H]3O)cc(O)c12 [PEDUNCULOSUMOSIDE E],> 100
7,Nc1ccn([C@@H]2CS[C@H](CO)O2)c(=O)n1 [LAMIVUDINE],2400
8,COc1c(-c2ccc(O[C@@H]3O[C@H](CO)[C@@H](O)[C@H](O)[C@H]3O)c(O)c2)oc2cc(O[C@@H]3O[C@H](CO)[C@@H](O)[C@H](O)[C@H]3O)cc(O)c2c1=O,7.9
9,COc1c(-c2ccc(O)c(O)c2)oc2cc(O[C@@H]3O[C@H](CO)[C@@H](O)[C@H](O)[C@H]3O)cc(O)c2c1=O [TRANSILIN],5.4

# Test system: Hepatitis B virus
# Assay: Antiviral activity against HBV transfected in human HepG2(2.2.15) cells assessed as inhibition of HBsAg secretion by ELISA
# Format: functional, organism-based
row,Structure (SMILES),IC50 [µM]
1,Nc1ccn([C@@H]2CS[C@H](CO)O2)c(=O)n1 [LAMIVUDINE],58

# — ChEMBL document CHEMBL1772944, “Homoflavonoid glucosides from Ophioglossum pedunculosum and their anti-HBV activity” (J Nat Prod, 2011)
